Data from patent US20230348506A1, “MACROCYCLIC PANTETHEINE DERIVATIVES AND USES THEREOF” (VectivBio Comet AG, priority 2019, published 2023).

Key:
[1] = test system: Methylmalonic Acidemia (MMA) Primary fibroblasts (GM01673, Coriell Institute for Medical Research); assay: Measurement of total GSH and GSSG dimer (GSH/GSSG ratio); type: cell-based, human; conditions: 10 μM compound for 2 hours
Description: Primary adherent fibroblasts were cultured in minimum essential medium (MEM) (Gibco, 25030081) supplemented with 2 mM L-Glutamine (Gibco, 25030081), 15% fetal bovine serum (FBS) (Gibco, 26400044) and 1% penicillin/streptomycin (Gibco, 5140122) at 37° C. and 5% CO2. Cells were collected for either passaging or experiment at ˜70-80% confluence. Cells were obtained by trypsinization and seeded in a white cell culture microplates (Thermo Fisher Scientific, 152028) for luminescent measurement. Cells were obtained by trypsinization and […] were seeded and allowed to adhere for 16-18 hours to have confluency around 70-80% in the cell well with culture media. After 24 hours prior to measurements (37° C, 5% CO2) media was changed to Dulbecco's Modified Eagle Medium (DMEM, Agilent Seahorse cat #103575-100) with the appropriate supplements (1 mM glucose, 2 mM L-glutamine, 1 mM pyruvate, 10% FBS).
Assay was performed according to manufacturer instructions (Promega, V6612). At the end of appropriate time point, the assay requires one plate for total measurement of GSH and one plate for GSSG. For every assay a 11-point standard curve is prepared ranging from 8 μM to 0.013 μM. […] Finally, 100 μl/well of Luciferin Detection reagent were added and incubated for 15 minutes before the chemiluminescence was detected. Free GSH/GSSG ratio was calculated as (Total GSH-GSSH)/(GSSG/2). […]

[2] = test system: primary adherent fibroblast cell line derived from an Methylmalonic Acidemia (MMA) patient (GM01673, Coriell Institute for Medical Research); assay: Mitochondrial respiration (Seahorse XFe96, OCR), Spare Capacity AUC; type: cell-based, human; conditions: 10 μM compound, 1 μM FCCP for 20 cycles, relative to vehicle
Description: The effect of the compounds of the present disclosure on mitochondrial respiration was measured with a XFe96 Extracellular Flux Analyzer (Seahorse Bioscience, Agilent Technologies) and Oxygen consumption Rate (OCR) and Extracellular acidification rate (ECAR) determined.
Cell culture and treatments. Primary adherent fibroblasts were cultured in minimum essential medium (MEM) (Gibco, 25030081) supplemented with 2 mM L-Glutamine (Gibco, 25030081), 15% fetal bovine serum (FBS) (Gibco, 26400044) and 1% penicillin/streptomycin (Gibco, 5140122) at 37° C. and 5% CO2. Cells were collected for either passaging or experiment at ˜70-80% confluence. Cells were obtained by trypsinization and seeded at 10,000 cells/well in cell culture microplates (Seahorse Bioscience, 101085-004) and allowed to adhere for 48 hours in culture media. […]
Determining the optimized cell density and concentrations for stress test, such as FCCP, were achieved through methods well known to those of skill in the art. After baseline measurements of OCR, cells were challenged with compounds of the present disclosure at different concentrations (10 to 50 μM) or vehicle (DMSO, 0.1%) and a post-compound baseline was recorded. OCR was measured after sequentially adding to each well 1.5 μg/ml oligomycin (inhibitor of ATP synthase Sigma-Aldrich, 753531), then maximal OCR was determined with carbonyl cyanide 4-(trifluoromethoxy) phenylhydrazone (FCCP, Sigma-Aldrich, C2920), (uncoupler of oxidative phosphorylation) and 1.0 μM of rotenone (Sigma-Aldrich, R8875) plus antimycin A (Sigma-Aldrich, A8674) (inhibitors of mitochondrial complex I and III) for determination of rotenone-antimycin insensitive respiration together with Hoechst for nuclear staining in situ when normalized to cell counts. After the analysis and nuclear staining, the XFp microplate was transferred to the Cytation 5, and the nuclear images were captured, the individual nuclei were identified and counted by BioTek Gen5 software. […]

SMILES: CC1(C)COC(=O)CCC(=O)SCCNC(=O)CCNC(=O)[C@@H]1O [Compound 206, (R)-15-hydroxy-16,16-dimethyl-1-oxa-6-thia-9,13-diazacycloheptadecane-2,5,10,14-tetraone]
- increase of the GSH/GSSG ratio [1]: at least 20%
- increase of Spare Capacity AUC ([2]; medium with 1 mM glucose): at least 50%
- increase of Spare Capacity AUC ([2]; medium with 10 mM glucose, 2 mM glutamine, 1 mM pyruvate): > 10%
